# From ChEMBL document CHEMBL4007503, “Easy and rapid preparation of benzoylhydrazides and their diazene derivatives as inhibitors of 15-lipoxygenase” (Bioorg Med Chem Lett, 2017)
# Calls of active or inactive are those of the source. The calls are words filed in the database; no cut-off is given here.
# Legend:
# Glycine max [1] = assay: Inhibition of soybean 15-LOX at 10 uM using linoleic acid as substrate relative to control
# Glycine max [2] = assay: Inhibition of soybean 15-LOX assessed as Vmax for substrate using linoleic acid as substrate by Lineweaver-Burk plot analysis
# Glycine max [3] = assay: Inhibition of soybean 15-LOX assessed as Km for substrate using linoleic acid as substrate by Lineweaver-Burk plot analysis
# [4] = Inhibition of soybean 15-LOX using linoleic acid as substrate; set-up: species or system Glycine max
# [5] = Competitive inhibition of soybean 15-LOX using linoleic acid as substrate by Lineweaver-Burk plot analysis; set-up: species or system Glycine max
# [6] = Antioxidant activity assessed as ferric ion reducing activity by measuring Fe2+ levels using Fe3+-TPTZ after 40 mins by FRAP assay; format: functional
# [7] = biological target: T1, Polyunsaturated fatty acid lipoxygenase ALOX15 (Homo sapiens, UniProt P16050); assay: Inhibition of 15-LOX in human primary polymorphonuclear leukocytes
# T1 sequence (P16050 whole entry): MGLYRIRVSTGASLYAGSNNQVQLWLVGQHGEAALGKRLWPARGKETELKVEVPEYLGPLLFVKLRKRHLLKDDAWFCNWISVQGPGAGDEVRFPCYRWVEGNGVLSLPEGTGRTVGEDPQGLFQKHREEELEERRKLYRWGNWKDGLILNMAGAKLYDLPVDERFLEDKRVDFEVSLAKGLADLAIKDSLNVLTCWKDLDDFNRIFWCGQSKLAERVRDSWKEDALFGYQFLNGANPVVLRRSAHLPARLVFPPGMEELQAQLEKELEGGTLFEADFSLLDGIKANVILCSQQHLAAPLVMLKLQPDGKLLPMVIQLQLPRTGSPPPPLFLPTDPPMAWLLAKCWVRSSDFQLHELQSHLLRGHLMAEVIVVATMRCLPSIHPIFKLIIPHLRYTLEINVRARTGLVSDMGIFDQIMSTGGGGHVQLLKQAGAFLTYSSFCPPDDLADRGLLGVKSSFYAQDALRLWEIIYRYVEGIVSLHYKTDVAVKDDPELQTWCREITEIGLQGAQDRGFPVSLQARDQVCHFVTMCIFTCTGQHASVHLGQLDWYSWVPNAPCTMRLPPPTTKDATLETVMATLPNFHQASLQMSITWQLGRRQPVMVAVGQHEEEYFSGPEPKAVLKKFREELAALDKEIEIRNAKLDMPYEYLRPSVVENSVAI
# [8] = Antioxidant activity assessed as cupric ion reducing activity after 30 mins by CUPRAC assay; format: functional
# Glycine max [9] = assay: Potency index, ratio of 4-methyl-2-(4-methylpiperazinyl)-pyrimido[4,5b]benzothiazine IC50 to compound IC50 for soybean 15-LOX
# [10] = biological target: T1, Polyunsaturated fatty acid lipoxygenase ALOX15; assay: Inhibition of thapsigargin-stimulated 15-LOX in human primary polymorphonuclear leukocytes using arachidonic acid as substrate preincubated for 5 mins followed by thapsigargin stimulation for 5 mins by RP-HPLC method
structure (smiles),measurement,setting,value
N#Cc1ccc(NNC(=O)c2ccccc2)cc1,inhibition,Glycine max [1],9%
N#Cc1ccc(/N=N/C(=O)c2ccccc2)cc1,Vmax,Glycine max [2],0.57 µM/s
same,Km,Glycine max [3],140 µM
same,IC50,[4],9.78 µM
same,Ki,[5],3.89 µM
same,inhibition,Glycine max [1],80%
O=C(NNc1ccc(Br)cc1)c1ccccc1,Activity,[6],Active
same,inhibition,Glycine max [1],28%
CC(c1cc2ccccc2s1)N(O)C(N)=O (stereo not given) [ZILEUTON],IC50,[7],0.4 µM
O=C(/N=N/c1ccccc1)c1ccccc1,IC50,[4],6.97 µM
same,inhibition,Glycine max [1],87%
COc1ccc(NNC(=O)c2ccccc2)cc1,Activity,[6],Active
same,inhibition,Glycine max [1],73%
O=C(NNc1ccccc1)c1ccccc1,Activity,[6],Active
same,Activity,[8],Active
same,inhibition,Glycine max [1],33%
Cc1ccc(NNC(=O)c2ccccc2)cc1,Vmax,Glycine max [2],0.46 µM/s
same,Ratio IC50,Glycine max [9],3.4
same,Km,Glycine max [3],89.6 µM
same,IC50,[4],5.35 µM
same,Activity,[6],Active
same,Ki,[5],0.81 µM
same,inhibition,Glycine max [1],93%
O=C(/C=C/c1ccc(O)c(O)c1)OCCc1ccccc1 [CAFFEIC ACID PHENETHYL ESTER],IC50,[10],0.13 µM
O=C(/N=N/c1ccc([N+](=O)[O-])cc1)c1ccccc1,inhibition,Glycine max [1],34%
Cc1ccc(/N=N/C(=O)c2ccccc2)cc1,inhibition,Glycine max [1],44%
O=C(NNc1ccc([N+](=O)[O-])cc1)c1ccccc1,inhibition,Glycine max [1],17%
O=C(/N=N/c1ccc(Br)cc1)c1ccccc1,inhibition,Glycine max [1],44%
COc1ccc(/N=N/C(=O)c2ccccc2)cc1,inhibition,Glycine max [1],19%
NS(=O)(=O)c1ccc(NNC(=O)c2ccccc2)cc1,inhibition,Glycine max [1],10%
